We go through seven compounds from patent US20260285875A1, “INHIBITORS OF PARG” (858 Therapeutics, Inc., priority 2023, published 2026).

Bounds are passed on as bounds.

T1 sequence (Q86W56 whole entry): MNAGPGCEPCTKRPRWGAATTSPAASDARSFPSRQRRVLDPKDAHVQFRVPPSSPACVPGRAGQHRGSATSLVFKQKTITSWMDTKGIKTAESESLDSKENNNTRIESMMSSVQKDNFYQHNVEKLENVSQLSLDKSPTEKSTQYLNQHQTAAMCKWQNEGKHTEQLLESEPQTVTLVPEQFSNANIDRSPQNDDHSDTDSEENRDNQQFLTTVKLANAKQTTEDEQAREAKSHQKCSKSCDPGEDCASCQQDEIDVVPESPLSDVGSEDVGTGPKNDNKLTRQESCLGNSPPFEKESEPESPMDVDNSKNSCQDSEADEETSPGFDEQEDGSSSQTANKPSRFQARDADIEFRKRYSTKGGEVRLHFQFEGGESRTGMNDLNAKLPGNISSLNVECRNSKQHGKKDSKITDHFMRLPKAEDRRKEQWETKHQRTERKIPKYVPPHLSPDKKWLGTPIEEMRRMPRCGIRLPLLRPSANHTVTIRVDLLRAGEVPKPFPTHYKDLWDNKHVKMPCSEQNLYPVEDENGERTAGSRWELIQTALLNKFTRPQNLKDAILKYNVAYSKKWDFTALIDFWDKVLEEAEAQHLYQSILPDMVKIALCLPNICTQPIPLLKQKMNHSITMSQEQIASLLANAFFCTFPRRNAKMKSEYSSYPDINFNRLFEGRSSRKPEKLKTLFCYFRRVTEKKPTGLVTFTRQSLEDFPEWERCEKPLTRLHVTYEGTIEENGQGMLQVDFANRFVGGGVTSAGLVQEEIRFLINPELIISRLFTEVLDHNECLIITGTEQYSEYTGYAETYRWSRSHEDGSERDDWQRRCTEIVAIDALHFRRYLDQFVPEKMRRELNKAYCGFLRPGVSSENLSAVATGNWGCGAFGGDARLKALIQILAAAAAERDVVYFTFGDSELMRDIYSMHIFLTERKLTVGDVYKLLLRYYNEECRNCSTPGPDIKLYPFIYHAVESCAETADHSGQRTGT

One test concerns the target T1, cellular PARG (Homo sapiens, UniProt Q86W56).
T1 construct: endogenous in cells; host or cells: HeLa
The test can be described thus: Nuclear PAR accumulation assay (immunofluorescence high-content imaging, MMS-treated HeLa cells). The format is cell-based. The following applies: 1 hour compound then MMS 50 μg/mL for an additional hour. The method in brief:
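HeLa cells pretreated with compound for 1 h at 37° C, then given 50 μg/mL MMS for another hour. After methanol fixation, PAR was immunostained with DAPI nuclear counterstain; per-nucleus intensity and percent PAR-positive cells were imaged at 20× (≥1,000 cells/well). IC50 from four-parameter logistic fit.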
Usually IC50 stands for the concentration needed to halve the response being measured. Read a high IC50 as weaker potency in that assay. In the case of `CC(=O)N1CCn2ncc(CN3C(=O)c4cc(S(=O)(=O)NC5(C)CC5)ccc4N4C3=N[C@H]3CCC[C@H]34)c2C1` [Example 291, (7aS,10aR)-6-((5-acetyl-4,5,6,7-tetrahydropyrazolo[1,5-a]pyrazin-3-yl)methyl)-N-(1-methylcyclopropyl)-5-oxo-6,7a,8,9,10,10a-hexahydro-5H-cyclopenta[4,5]imidazo[1,2-a]quinazoline-3-sulfonamide], the concentration for half-maximal inhibition (IC50) lay in the range of 0.1 to 1 µM.

In turn, `CC(=O)N1CCN(c2cc(S(=O)(=O)NC3(C)CC3)cc3c2N2C(=NC[C@H]2C)N(Cc2cnn(C)c2)C3=O)CC1` [Example 292, (R)-9-(4-acetylpiperazin-1-yl)-1-methyl-4-((1-methyl-1H-pyrazol-4-yl)methyl)-N-(1-methylcyclopropyl)-5-oxo-1,2,4,5-tetrahydroimidazo[1,2-a]quinazoline-7-sulfonamide] came in with an IC50 of 0.1 to 1 µM.

`COC(=O)[C@@H]1N=C2N(Cc3cnn(C)c3)C(=O)c3cc(S(=O)(=O)NC4(C)CC4)ccc3N2[C@@H]1C` [Example 293, methyl (1R,2R)-1-methyl-4-((1-methyl-1H-pyrazol-4-yl)methyl)-7-(N-(1-methylcyclopropyl)sulfamoyl)-5-oxo-1,2,4,5-tetrahydroimidazo[1,2-a]quinazoline-2-carboxylate] gave an IC50 of 0.1 to 1 µM.

The compound `C[C@@H]1[C@H](CO)N=C2N(Cc3cnn(C)c3)C(=O)c3cc(S(=O)(=O)NC4(C)CC4)ccc3N21` [Example 294, (1R,2R)-2-(hydroxymethyl)-1-methyl-4-((1-methyl-1H-pyrazol-4-yl)methyl)-N-(1-methylcyclopropyl)-5-oxo-1,2,4,5-tetrahydroimidazo[1,2-a]quinazoline-7-sulfonamide] yielded an IC50 of less than 0.1 µM.

In the case of `CC(=O)NC[C@@H]1N=C2N(Cc3cnn(C)c3)C(=O)c3cc(S(=O)(=O)NC4(C)CC4)ccc3N2[C@@H]1C` [Example 295, N-(((1R,2S)-1-methyl-4-((1-methyl-1H-pyrazol-4-yl)methyl)-7-(N-(1-methylcyclopropyl)sulfamoyl)-5-oxo-1,2,4,5-tetrahydroimidazo[1,2-a]quinazolin-2-yl)methyl)acetamide], the IC50 lay in the range of 0.1 to 1 µM.

The compound `C#C[C@@H]1CN=C2N(Cc3cnn4c3CNCC4)C(=O)c3cc(S(=O)(=O)NC4(C)CC4)cc(Cl)c3N21` [Example 297, (R)-9-chloro-1-ethynyl-N-(1-methylcyclopropyl)-5-oxo-4-((4,5,6,7-tetrahydropyrazolo[1,5-a]pyrazin-3-yl)methyl)-1,2,4,5-tetrahydroimidazo[1,2-a]quinazoline-7-sulfonamide] displayed an IC50 of less than 0.1 µM.

Another test concerns sensitive cells.
Assay: not given
The following applies: S-phase dependent; cited from earlier work.
With PDD00017273, the “accumulation of nuclear RPA protein and induction of pan-nuclear QH2AX expression” value was “S-phase dependent accumulation of nuclear RPA protein and induction of pan-nuclear QH2AX expression”.
